# Source: patent publication US10668055B2, “Cancer treatment using combinations of ERK and RAF inhibitors” (BIOMED VALLEY DISCOVERIES, INC., priority 2013, dated 2020)
# Read-outs that look alike come from different tables or passages of the source.
# Key:
# [1] = system: A375; experiment: Single agent proliferation assay (CellTiter-Glo, 72 h); assay type: cell-based, human; conditions: Homo sapiens, A-375; A375, 72 h
# Procedure: (§1) Cells were seeded in 96-well plates at the densities and media conditions indicated in Table 17 and allowed to adhere overnight prior to addition of compound or vehicle control. Compounds were prepared from DMSO stocks to give the desired final concentrations. The final DMSO concentration was constant at 0.1%. Test compounds were incubated with the cells for 72 h at 37° C., 5% CO2 in a humidified atmosphere. CellTiter-Glo® reagent (Promega, Madison, Wis.) was added according to manufacturer's instructions and luminescence detected using the BMG FLUOstar plate reader (BMG Labtech, Ortenberg, Germany). The average media only background value was deducted and the data analysed using a 4-parameter logistic equation in GraphPad Prism (GraphPad Software, La Jolla, Calif.).
# [2] = system: G-361; experiment: as above; assay type: cell-based; conditions: Homo sapiens, G-361, 72 h
# Procedure: as §1
# [3] = system: MAPK signaling pathway in A375 and HCT116 cells; conditions: Morris et al., 2013; cited from earlier work
# [4] = system: A375 human melanoma xenograft; experiment: A375 in vivo study: tumor growth delay and regression responses; set-up: species or system athymic nude mice; conditions: G10: 150 mg/kg po qd × 5
# Procedure: Female athymic nude mice (Crl:NU(Ncr)-Foxn/^nu, Charles River) were nine weeks old with a body weight (BW) range of 17.5 to 26.2 grams on Day 1 of the study. The animals were fed ad libitum water (reverse osmosis, 1 ppm CI), and NIH 31 Modified and Irradiated Lab Diet® consisting of 18.0% crude protein, 5.0% crude fat, and 5.0% crude fiber. The mice were housed on irradiated Enrich-o'cobs™ Laboratory Animal Bedding in static microisolators on a 12-hour light cycle at 20-22° C. (68-72° F.) and 40-60% humidity. The recommendations of the Guide for Care and Use of Laboratory Animals with respect to restraint, husbandry, surgical procedures, feed and fluid regulation, and veterinary care were complied with.
# Tumor xenografts were initiated with A375 human melanomas by serial subcutaneous transplantation in athymic nude mice. On the day of tumor implant, each test mouse received a 1 mm^3 A375 fragment implanted subcutaneously in the right flank, and tumor growth was monitored as the average size approached the target range of 80 to 120 mm^3. Tumors were measured in two dimensions using calipers, and volume was calculated using the formula: […]
# Ten days after tumor implantation, designated as Day 1 of the study, the animals were sorted into nine groups (Groups 1-9) each consisting of fifteen mice and one group (Group 10) consisting of ten mice. Individual tumor volumes ranged from 75 to 144 mm^3 and group mean tumor volumes were 110 or 111 mm^3.
# On Day 1 of the study, mice were sorted into nine groups (Group 1-9) each consisting of fifteen mice and one group (Group 10) consisting of ten mice, and dosing was initiated according to the treatment plan summarized in Table 15 below. Each dose was given by oral gavage (p.o.) in a dosing volume of 10 mL/kg (0.2 mL per 20 grams of body weight), scaled to the body weight of each individual animal. The vehicle and dabrafenib doses were to be given once daily until study end (qd to end), whereas the BVD-523 doses were to be given twice daily until study end (bid to end). For bid dosing, dosing was initiated in the afternoon on Day 1, so that one dose was given on the first day (“first day 1 dose”).
# Due to the striking response to combination treatment, dosing in Groups 2-5 was stopped on Day 20 in order to monitor tumor re-growth. Dosing was to be re-initiated in a group when the mean tumor burden reached 1000 mm^3. By Day 42, the 1000 mm^3 mean tumor burden had not been reached in any of the combination groups. Dosing was re-initiated to permit post-final dose serum and tumor sampling for pharmacokinetic analyses. […] The final dosing schedules are shown below in Table 16.
# Tumors were measured using calipers twice per week, and each animal was euthanized when its tumor reached the pre-determined tumor volume endpoint of 2000 mm^3 or on the final day, whichever came first. Animals that exited the study for tumor volume endpoint were documented as euthanized for tumor progression (TP), with the date of euthanasia. The time to endpoint (TTE) for analysis was calculated for each mouse by the following equation:
# [formula] where TTE is expressed in days, endpoint volume is expressed in mm^3, b is the intercept, and m is the slope of the line obtained by linear regression of a log-transformed tumor growth data set. The data set consists of the first observation that exceeded the endpoint volume used in analysis and the three consecutive observations that immediately preceded the attainment of this endpoint volume. The calculated TTE is usually less than the TP date, the day on which the animal was euthanized for tumor size. […] Any animal classified as having died from NTR (non-treatment-related) causes due to accident (NTRa) or due to unknown etiology (NTRu) were excluded from TTE calculations (and all further analyses). Animals classified as TR (treatment-related) deaths or NTRm (non-treatment-related death due to metastasis) were assigned a TTE value equal to the day of death. […]
# [5] = A375 in vivo study: toxicity (body weight, deaths, side effects); conditions: G10: 150 mg/kg po qd × 5
# Description: Animals were weighed daily on Days 1-5, then twice per week until completion of the study. […] Individual body weight loss was monitored as per protocol, and any animal that exceeded the limits for acceptable body weight loss was euthanized. Group mean body weight loss also was monitored as per protocol. Dosing was to be suspended in any group that exceeded the limits for acceptable mean body weight loss. If mean body weight recovered, then dosing was to be resumed in that group, but at a lower dosage or less frequent dosing schedule.
# Acceptable toxicity for the maximum tolerated dose (MTD) was defined as a group mean body-weight loss of less than 20% during the study and not more than 10% treatment-related (TR) deaths. […] A death was classified as non-treatment-related (NTR) if there was no evidence that death was related to treatment side effects. NTR deaths were further characterized based on cause of death. A death was classified as NTRa if it resulted from an accident or human error. […] A death was classified as NTRu if the cause of death was unknown and there was no available evidence of death related to treatment side effects, metastasis, accident or human error, although death due to treatment side effects cannot be excluded.
# [6] = system: A375 cells; experiment: Proliferation assay (Alamar Blue, 96 hours) on parental and dose-escalated A375 cell lines; conditions: Homo sapiens
# Procedure: Cancer cell lines were maintained in cell culture under standard media and serum conditions. For dose escalation studies, A375 cells were split, grown to about 40-60% confluence, and then treated with the initial dose of the specified drug.
# Proliferation assays were used to track changes in sensitivity to the escalated agent(s) at appropriate time intervals (e.g. each month, although the timing is dependent on adequate cell numbers being available). For proliferation assays, cells were seeded in 96-well plates at 3000 cells per well in drug-free DMEM medium containing 10% FBS and allowed to adhere overnight prior to addition of compound or vehicle control. […] Test compounds were incubated with the cells for 96 hours at 37° C. and 5% CO2 in a humidified atmosphere. Alamar Blue 10% (v/v) was then added and incubated for 4 hours and fluorescent product was detected using a BMG FLUOstar plate reader. The average media only background value was deducted and the data analyzed using a 4-parameter logistic equation in GraphPad Prism. Paclitaxel was used as a positive control.
smiles,measurement,setting,value
O=C(Nc1ccc2[nH]nc(-c3ccncc3)c2c1)[C@@H]1CCN(CC(=O)N2CCN(c3ccc(-c4ncccn4)cc3)CC2)C1 [SCH772984],IC50,[1],32 nM
same,IC50,[2],180 nM
same,Autophosphorylation of ERK,[3],inhibit autophosphorylation of ERK
Cn1nnc2c(C(N)=O)ncn2c1=O [Temozolomide],% TGD,[4],14%
same,CR (complete regressions),[4],0
same,Median TTE,[4],10.5 days
same,PR (partial regressions),[4],0
same,T-C,[4],1.3 days
same,TFS (tumor free survivors),[4],0
same,Deaths NTR,[5],0
same,Deaths TR,[5],0
same,Mean BW Nadir,[5]; nadir on Day 5,−1.6% Day 5
CCCS(=O)(=O)Nc1ccc(F)c(C(=O)c2c[nH]c3ncc(-c4ccc(Cl)cc4)cc23)c1F [Vemurafenib],IC50,[1],47 nM
same,IC50,[2],248 nM
CC(=O)Nc1cccc(-n2c(=O)n(C3CC3)c(=O)c3c(Nc4ccc(I)cc4F)n(C)c(=O)c(C)c32)c1 [Trametinib],IC50,"[6]; A-375, read-out: Relative IC50, Month 1, Par = Parental cell line",0.5 nM
same,IC50,"[6]; A-375, read-out: Relative IC50, Month 1, cell line BVD-523 (0.48 μM)",0.7 nM
same,IC50,"[6]; A-375, read-out: Relative IC50, Month 1, cell line Dab (15 nM Dab)",2.5 nM
same,IC50,"[6]; A-375, read-out: Relative IC50, Month 1, cell line Dab/523 (7.5 nM/0.24 μM)",3.1 nM
same,IC50,"[6]; A-375, read-out: Relative IC50, Month 1, cell line Tram (growing in 2 nM Tram)",2.2 nM
same,IC50,"[6]; A-375, read-out: Relative IC50, Month 2, Par = Parental cell line",0.4 nM
same,IC50,"[6]; A-375, read-out: Relative IC50, Month 2, cell line BVD-523 (0.8 μM)",24.3 nM
same,IC50,"[6]; A-375, read-out: Relative IC50, Month 2, cell line Dab (127 nM Dab)",1.1 nM
same,IC50,"[6]; A-375, read-out: Relative IC50, Month 2, cell line Dab/523 (12.5 nM/0.4 μM)",6.2 nM
same,IC50,"[6]; A-375, read-out: Relative IC50, Month 2, cell line Tra (8 nM Tram)",0.7 nM
same,IC50,"[6]; A-375, read-out: Relative IC50, Month 3, Par = Parental cell line",0.2 nM
same,IC50,"[6]; A-375, read-out: Relative IC50, Month 3, cell line Dab (3.2 μM Dab)",0.4 nM
